For assay [1], the system named is mucoid P. aeruginosa strains derived from cystic fibrosis patients. The experiment in a line: OPK assay, mucoid isolates. The class given is cell-based, Pseudomonas aeruginosa. The following applies: FIG. 2D. As for the experimental part:
This example describes the evaluation of prioritized human IgG1 antibodies to promote OPK of P. aeruginosa. […] OPK assays were performed as described in (DiGiandomenico, A., et al., Infect Immun 72, 7012-7021 (2004)), with modifications. Briefly, assays were performed in 96-well plates using 0.025 ml of each OPK component; P. aeruginosa strains; diluted baby rabbit serum; differentiated HL-60 cells; and monoclonal antibody. In some OPK assays, luminescent P. aeruginosa strains, which were constructed as described (Choi, K. H., et al., Nat Methods 2, 443-448 (2005)), were used. Luminescent OPK assays were performed as described above but with determination of relative luciferase units (RLUs) using a Perkin Elmer ENVISION Multilabel plate reader (Perkin Elmer).
The ability of Cam-003 to mediate OPK activity against representative non-mucoid strains from clinically relevant O-antigen serotypes and against mucoid P. aeruginosa strains which were derived from cystic fibrosis patients was evaluated.

For another assay, the system named is P. aeruginosa PAO1 cells. The experiment in a line: Flow cytometry (FACS) whole cell binding. More on the design: species or system Pseudomonas aeruginosa. The following applies: PAO1ΔpslA; FIG. 3C. The source says: For IgG expression, the VH and VL chains of selected antibodies were cloned into human IgG1 expression vectors, co-expressed in HEK293 cells, and purified by protein A affinity chromatography as described (Persic, L., et al., Gene 187, 9-18 (1997)). Human IgG1 antibodies made with the variable regions from these selected serotype independent phage were confirmed for P. aeruginosa specificity and prioritized for subsequent analysis by whole cell binding to dominant clinically relevant serotypes by FACS analysis (FIG. 1F), since this method is more stringent than ELISA. For the flow cytometry based binding assays mid-log phase P. aeruginosa strains were concentrated in PBS to an OD650 of 2.0. […] Samples were run on a LSR II flow cytometer (BD Biosciences) and analyzed using BD FacsDiva (v. 6.1.3) and FlowJo (v. 9.2; TreeStar).
CAM-003 is specific for the P. aeruginosa Psl surface exopolysaccharide and mediates potent OPK activity and protection in multiple in vivo models. […] Conjugation efficiency of PMB-mAbs variants was determined by mass spectrometry analysis of heavy chains in purified conjugates. […] Contamination with free PMB in the purified preparations was determined to be negligible. Binding of PMB-Cam-003 and PMB-A7 conjugates to P. aeruginosa PAO1 cells was evaluated by FACS. […] Samples were stained and analyzed as previously described in Example 1. […]

Assay [2] deals with P. aeruginosa 6077 (O11-cytotoxic). The experiment in a line: P. aeruginosa corneal infection (keratitis) model. The note with it: versus negative control-treated animals, 24 hours after infection. Type of assay: in vivo, mice. As to the method: (§1) FIG. 8 (A-G): Anti-Psl monoclonal antibodies Cam-003 and WapR-004 are active in a P. aeruginosa keratitis model and thermal injury model. Mice were treated with a control IgG1 antibody or Cam-003 at 45 mg/kg (A, B) or 15 mg/kg (C, D) or PBS or a control IgG1 antibody or Cam-003 at 45 mg/kg or WapR-004 at 45 mg/kg or 15 mg/kg or 5 mg/kg (F, G) 24 hours prior to infection with 6077 (O11-cytotoxic—2×10^6 CFU). Immediately before infection, three 1 mm scratches were made on the left cornea of each animal followed by topical application of P. aeruginosa in a 5 μl inoculum. 24 hours after infection, the corneal pathology scores were calculated followed by removal of the eye for determination of viable CFU. Differences in pathology scores and viable CFU were determined by the Mann-Whitney U-test. (A) P=0.0001, (B) P<0.0001, (C) P=0.0003, (D) P=0.0015. (F) and (G) Cam-003 (45 mg/kg) vs. WapR-004 (45 mg/kg): P=0.018; Cam-003 (45 mg/kg) vs. WapR-004 (15 mg/kg): P=0.0025; WapR-004 (45 mg/kg) vs. WapR-004 (15 mg/kg): P=0.1331; WapR-004 (5 mg/kg) vs. Ctrl: P<0.0001. Results are representative of five independent experiments. (E) Survival analysis from Cam-003 and R347 treated CF-1 mice in a P. aeruginosa thermal injury model after 6077 infection (2×10^5 CFU) (log-rank: R347 vs. Cam-003 15 mg/kg, P=0.0094; R347 vs. Cam-003 5 mg/kg, P=0.0017). […]

The subject of assay [3] is P. aeruginosa strain 6077. The experiment in a line: P. aeruginosa thermal injury model. The class given is in vivo, CF-1 mice. The following applies: 15 and 5 mg/kg; versus antibody-treated control; FIG. 8E. As for the experimental part: as §1

For the substance “Cam-003: human IgG1 anti-Psl monoclonal antibody, VH SEQ ID NO: 1 and VL SEQ ID NO: 2”, in assay [1], the OPK activity result is listed as “mediated potent killing of all mucoid P. aeruginosa isolates that were tested”. Besides, the FACS binding result with P. aeruginosa PAO1 cells is recorded as “abolished”. The “bacterial counts in total eye homogenates” value in assay [2] was “reduced bacterial counts”. In addition, in assay [2] (FIGS. 8A-D, F-G), the corneal pathology result is “significantly less pathology”. In assay [3], the “protection (survival)” value is “significant protection”.

The values are drawn from patent US10370436B2, “Anti-pseudomonas Psl binding molecules and uses thereof” (priority 2011, dated 2019).
